9 compounds from patent publication US4027024A (priority 1972, dated 1977) can be followed below.

In experiment [1] the test system is rats. Description: hot plate test on rats, analgesic effect (Tables 1 and 2). Type of experiment: in vivo. How it is done: Examination of PROBON'S potentiating effect upon
azidomorphine and azidocodeine, carried out on rats, by
hot plate test, compared with Algopyrine. The compounds
were administered s.c. (subcutaneously).
Examination of the potentiating effect of a few
homopyrimidazole derivatives upon axidomorphine or
azidocodeine, carried out on rats, by Hot plate test, the
compounds were administered s.c.

Experiment [2] has as its system rats. Description: algolytic test, analgesia evaluated by pain score scale (Table A). Type of experiment: in vivo. The conditions noted are these: for Pain units: pretr. time 1 hour, alone.
Experiment [3] can be described thus: modified hot plate test, duration of effect. The conditions noted are these: azidocodeine alone. Type of experiment: in vivo. (Thermal pain tests record how soon the animal reacts.)
Experiment [4] deals with rats. The conditions noted are these: rat, in vivo; for analgesic effect of the component per se (in words): sc.
In experiment [5] the test system is rats. The conditions noted are these: rat, in vivo.

Structures are written as SMILES.

As for `Cc1c(N(C)CS(=O)(=O)O)c(=O)n(-c2ccccc2)n1C` [Algopyrin, 2,3-dimethyl-4-methylamino-1-phenyl-5-pyrazolon-N-methane-sulfonic acid, reference compound], the “Analgesic effect, Hot plate test” value worked out at 33% in the experiment on rats [1] (150 mg/kg s.c., alone); 49% in the experiment with rats [1] (200 mg/kg s.c., alone); 29% in the experiment with rats [1] (AP 150 mg/kg s.c., AM --, AK dose left blank). For the same compound, the “analgesic potency relative to Probon (in words)” value with rats [1] (Hot plate test, rats, s.c.) was “equipotent with Probon”. For the same compound, the “effect on analgesic effect of azidomorphine or azidocodeine (in words)” value with rats [1] (Hot plate test, rats, s.c.) was “does not increase the analgesic effect”.

Consider `COc1ccc2c3c1O[C@H]1[C@H](N=[N+]=[N-])CC[C@H]4[C@@H](C2)N(C)CC[C@@]341` [Azidocodeine], for which the Pain units with rats [2] (Azidocodeine 30 mg/kg p.o.) worked out at 87 Pain units; in the experiment with rats [2] (Azidocodeine 45 mg/kg p.o.), 38 Pain units; in the experiment on rats [2] (Azidocodeine 60 mg/kg p.o.), 30 Pain units. In addition, the “ED50 in the algolytic test” value in the experiment with rats [2] (azidocodeine alone, from diagram plotted from Table A) was 32 mg/kg. Further, the “duration of the effect” value in experiment [3] lay in the range of 2 to 2.5 h. Also, in the experiment with rats [1] (AK 0.250 mg/kg s.c., alone), the “Analgesic effect, Hot plate test” value is 16%.

Turning to `CN1CC[C@]23c4c5ccc(O)c4O[C@H]2[C@H](N=[N+]=[N-])CC[C@H]3[C@H]1C5` [Azidomorphine], the “Analgesic effect, Hot plate test” value in the experiment on rats [1] (AM 0.015 mg/kg s.c., alone) came out at 22%. Moreover, in the experiment on rats [4], the “analgesic effect of the component per se (in words)” value is “ineffective”.

On to `CCOC(=O)c1cnc2n(c1=O)C(C)CCC2` (stereo not shown) [MZ-108, 3-carbethoxy-4-oxo-6-methyl-6,7,8,9-tetrahydro-homopyrimidazole], for which the “Analgesic effect, Hot plate test” value with rats [1] (200 mg/kg s.c., alone) was found to be 18%. The “Analgesic effect, algolytic test” value with rats [4] amounted to 31%.

`CCOC(=O)c1c[n+](C)c2n(c1=O)C(C)CCC2` (stereo not shown) [MZ-144, 1,6-dimethyl-3-carbethoxy-4-oxo-6,7,8,9-tetrahydro-homopyrimidazolium-methosulphate] displayed a Pain units with rats [2] (MZ-144 300 mg/kg p.o.) of 75 Pain units. Moreover, the “Prolongation of narcotic period” value in the experiment with rats [5] is listed as 571%. The “Analgesic effect, Hot plate test” value in the experiment with rats [1] (50 mg/kg s.c., alone) is 38%. Moreover, in the experiment on rats [4], the “Analgesic effect, algolytic test” value was found to be 59% and the “analgesic effect of the component per se (in words)” value is on record as “ineffective”.

On to `CCOC(=O)C1=CN(C)C2CCCC(C)N2C1=O` (stereo not shown) [MZ-168, 1,6-dimethyl-3-carbethoxy-4-oxo-1,6,7,8,9,10-hexahydro-homopyrimidazole], for which the “Analgesic effect, Hot plate test” value with rats [1] (50 mg/kg s.c., alone) is recorded as 23%.

On to `CCOC(=O)C1CN(C)C2CCCC(C)N2C1=O` (stereo not shown) [MZ-170, 1,6-dimethyl-3-carbethoxy-4-oxo-1,2,3,6,7,8,9,10-octahydro-homopyrimidazole], for which the “Analgesic effect, Hot plate test” value with rats [1] (300 mg/kg s.c., alone) is reported as 31%.

Regarding `CC1CCCc2n1c(=O)c(C(=O)[O-])c[n+]2C` (stereo not shown) [MZ-211, 1,6-dimethyl-4-oxo-6,7,8,9-tetrahydro-homopyrimidazole-3-carboxylic acid], the “Analgesic effect, Hot plate test” value in the experiment on rats [1] (50 mg/kg s.c., alone) was 38%. Also, the “Analgesic effect, algolytic test” value in the experiment with rats [4] came to 15%.

For `O=C(CCCN1CCC(O)(c2ccc(Cl)cc2)CC1)c1ccc(F)cc1` [haloperidol, reference compound], the “Prolongation of narcotic period” value with rats [5] was 255%.
